The structures appear in SMILES notation. pIC50: −log10 of the molar value.

One test has as its target T1, UBE2N C87S (Homo sapiens, UniProt P61088, C87S).
T1 construct: purchased Genescript
In words: Differential scanning fluorimetry (DSF). The format is binding. The protocol: (§1) Recombinant UBE2N (2 .tg; Life sensors #UB218) in 3 .tl of buffer containing 20 mM Tris-HCl pH 7.4, 10 mM DTT, 10% glycerol, 150 mM NaCl and 0.02% DMSO as well as six samples of 1 .tg UBE2N mixed with 0.2 .tg of UC-764864 or UC-764865 were diluted to 50 ng/uL in 0.1% formic acid (FA) in preparation of MALDI-TOF analysis. Two .tl aliquots from the samples were used to make a 1:5 dilution with MALDI matrix (5 mg/mL sinapic acid in 60% ACN/0.1% formic acid) with 1 .tL spotted onto the target plate for analysis. For UBE2N C87S mutant, recombinant protein was purchased from Genescript. 2 micrograms of protein as well as 3 samples of UBE2N C87S were mixed with 0.4 micrograms of UC-764864 and UC-764865 in 10 microliters of buffer containing 20 mM Tris HCl pH 7.4, 1 mM DTT, 150 mM NaCl and ˜0.01% of DMSO in each sample. All mixtures were brought up to 40 ul by adding 30 ul of 0.1% formic acid (FA). 5 ul aliquots from the samples were used to make a 1:5 dilution with MALDI matrix as described above. […] The temperature was raised in 1° C. increments from 25° C. to 95° C. and fluorescence was measured at 530 nm. Derivative Tm was determined using Protein Thermal Shift Software version 1.3 by Applied Biosystems and then were analyzed with Prism 6 (GraphPad Software Inc.).

The next test concerns the target T2, UBE2N wild type (Homo sapiens, UniProt P61088).
T2 construct: purchased Life sensors UB218
T2 sequence (P61088 1-152): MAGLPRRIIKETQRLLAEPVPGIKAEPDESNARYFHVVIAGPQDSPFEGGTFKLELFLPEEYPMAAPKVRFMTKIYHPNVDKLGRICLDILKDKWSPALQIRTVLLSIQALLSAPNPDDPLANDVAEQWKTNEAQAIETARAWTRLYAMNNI
As to the kind of experiment: Differential scanning fluorimetry (DSF). Type of test: binding. Conditions: recombinant UBE2N protein. As to the method: as §1
Background: DSF heats the sample and reads unfolding from a dye or from intrinsic fluorescence.

Another test has as its system MV4-11. In words: Cell proliferation MTS assay. The format is cell-based. The conditions noted are these: Homo sapiens; MV4-11, MTS, 24 hours. The protocol: (§2) AML cell lines (5×10^3 cells/well) were seeded in 96-well plates and grown for 24 to 96 h in serum (10%)-containing medium in the presence or absence of inhibitors at the indicated concentrations. Proliferation was analyzed by means of an MTS assay using the CellTiter 96 Aqueous One Solution Cell Proliferation Assay (Promega, Madison, Wis., USA), according to the manufacturer's instructions. Data are mean with standard deviation from three independent experiments in technical triplicates. For the screening of 160 compounds from the UC library, the cell metabolic activity was assessed at 24 hours of treatment of MOLM-13 cells. Top 15 candidates were re-screened at 2 μM, and the cell metabolic activity was determined at 24 hours of treatment. In certain experiments, cell viability was determined by staining the cells with trypan blue at a 1/2 dilution and counting total number of viable cells upon treatment with UC-764864 or DMSO control. The cells were counted daily for 4 days using an automated cell counter (Countess II FL from Life Technologies). The cell proliferation in primary AMLs in FIG. 9E was performed as follows: 50,000 cells were plated in duplicate in a 96 well plate in IMDM containing 20% heat inactivated FBS plus 10 ng/ml of each SCF, IL3, IL6, TPO, and FLT3. UC-764864 was added at the indicated concentrations and cells were incubated with drug for 3 days, at which point cell viability was measured by MTS according to manufacturer's instructions.
In general terms: Formazan colour is commonly taken as a measure of viable cells.

The subject of another test is THP-1. In words: Cell proliferation MTS assay. The format is cell-based. Conditions: Homo sapiens; THP-1, MTS, 24 hours. As to the method:
as §2

The test system of the next test is Kasumi-1. As to the kind of experiment: Cell proliferation MTS assay. Conditions: Homo sapiens; Kasumi-1, MTS, 24 hours. The format is cell-based. As to the method:
as §2

For another test, the system named is HL-60. In words: Cell proliferation MTS assay. Type of test: cell-based. The conditions noted are these: Homo sapiens; HL-60, MTS, 24 hours. As to the method:
as §2

The test system of another test is KG-1a. In words: Cell proliferation MTS assay. The conditions noted are these: Homo sapiens, 24 hours. The format is cell-based. As to the method:
as §2

The subject of another test is SKM-1. As to the kind of experiment: Cell proliferation MTS assay. The format is cell-based. Conditions: Homo sapiens; SKM-1, MTS, 24 hours. As to the method:
as §2

A further test relates to MOLM-14. In words: Cell proliferation MTS assay. Type of test: cell-based. Conditions: Homo sapiens; MOLM-14, MTS, 24 hours. The protocol: as §2
For another test, the system named is MDSL. As to the kind of experiment: Cell proliferation MTS assay. The conditions noted are these: Homo sapiens, 24 hours. Type of test: cell-based. As to the method: as §2
For the next test, the system named is MDS92. In words: Cell proliferation MTS assay. Conditions: Homo sapiens, 24 hours. The format is cell-based. The protocol:
as §2

A further test deals with NOMO-1. In words: Cell proliferation MTS assay. Type of test: cell-based. Conditions: Homo sapiens; NOMO-1, MTS, 24 hours. The protocol:
as §2

T1 sequence (P61088 whole entry C87S): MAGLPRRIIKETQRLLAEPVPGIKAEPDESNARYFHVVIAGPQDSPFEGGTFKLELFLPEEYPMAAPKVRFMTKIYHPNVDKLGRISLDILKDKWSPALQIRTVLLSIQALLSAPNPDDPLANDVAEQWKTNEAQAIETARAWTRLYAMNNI

With `COc1ccc(C(=O)C=CSc2nc3ccc(C)cc3[nH]2)cc1` [UC-764865, 1-(4-methoxyphenyl)-3-[(6-methyl-1H-benzimidazol-2-yl)sulfanyl]prop-2-en-1-one], on UBE2N C87S, the “change in Tm of UBE2N(C87S)” value is recorded as “did not change”. Further, the “change in melting temperature (Tm)” value on UBE2N wild type is on record as −2 C degrees.

On to `CCc1ccc(C(=O)C=CSc2nc3ccc(C)cc3[nH]2)cc1` [UC-764864, 1-(4-ethylphenyl)-3-[(6-methyl-1H-benzimidazol-2-yl)sulfanyl]prop-2-en-1-one], for which the pIC50 (in general, −log10 of the IC50, conventionally taken in molar units) is 5.30 in the test with MV4-11; 5.60 with THP-1; 5.18 with Kasumi-1; 5.37 in the test with HL-60; less than 5.00 in the test with KG-1a; 6.40 with SKM-1. For the same compound, the pIC50 is 7.70 in the test on MOLM-14, 5.25 in the test with MDSL, less than 5.00 with MDS92 and 5.17 with NOMO-1.
